From patent US20170166558A1, “O-GLCNAC TRANSFERASE (OGT) INHIBITORS AND USES THEREOF” (President and Fellows of Harvard College, priority 2014, published 2017)

Key:
[1] = biological target: T1, ncOGT (Homo sapiens, UniProt O15294); test: Radiometric capture assay with Nup62 acceptor and UDP-14C-GlcNAc; assay type: biochemical
T1 construct: full length human OGT (ncOGT); made in house
T1 sequence (O15294 1-1046): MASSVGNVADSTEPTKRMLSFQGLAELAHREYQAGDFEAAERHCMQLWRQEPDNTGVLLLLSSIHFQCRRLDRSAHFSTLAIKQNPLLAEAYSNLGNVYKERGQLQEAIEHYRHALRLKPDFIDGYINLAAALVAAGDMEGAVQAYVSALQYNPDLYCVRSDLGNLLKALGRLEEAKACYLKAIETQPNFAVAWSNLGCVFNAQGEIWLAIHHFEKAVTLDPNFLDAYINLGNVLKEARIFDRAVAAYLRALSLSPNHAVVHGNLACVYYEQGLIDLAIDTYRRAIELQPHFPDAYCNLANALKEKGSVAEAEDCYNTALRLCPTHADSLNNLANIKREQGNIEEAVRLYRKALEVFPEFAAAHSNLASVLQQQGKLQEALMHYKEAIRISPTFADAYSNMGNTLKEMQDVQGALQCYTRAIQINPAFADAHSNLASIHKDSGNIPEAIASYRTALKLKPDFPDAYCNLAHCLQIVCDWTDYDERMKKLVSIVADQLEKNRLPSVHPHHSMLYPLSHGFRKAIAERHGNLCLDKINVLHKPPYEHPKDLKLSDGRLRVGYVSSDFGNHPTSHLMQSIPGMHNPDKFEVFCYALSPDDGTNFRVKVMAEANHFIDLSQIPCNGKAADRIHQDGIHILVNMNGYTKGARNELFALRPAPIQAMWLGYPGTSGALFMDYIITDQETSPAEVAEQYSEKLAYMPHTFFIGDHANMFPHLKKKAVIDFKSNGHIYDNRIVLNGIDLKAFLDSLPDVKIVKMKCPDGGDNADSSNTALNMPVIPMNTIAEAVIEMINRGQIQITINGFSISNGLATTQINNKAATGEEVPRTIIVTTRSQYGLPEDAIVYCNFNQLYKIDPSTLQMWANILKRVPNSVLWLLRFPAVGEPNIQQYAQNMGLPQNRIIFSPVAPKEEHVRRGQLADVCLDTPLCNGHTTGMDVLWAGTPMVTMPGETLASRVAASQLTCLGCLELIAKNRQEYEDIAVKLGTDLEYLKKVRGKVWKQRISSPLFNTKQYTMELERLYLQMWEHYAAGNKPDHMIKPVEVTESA
Experimental: Radiometric capture assay: Nucleoporin 62 (Nup62) was used as a model substrate. IC50 values of the both inhibitors were determined at range of 0 to 100 μM (eight point, duplicate). OGT antagonists were tested in a reaction mixture containing 18 μM Nup62, 6 μM UDP-^14C-GlcNAc, 100 nM ncOGT, and lx phosphate-buffered saline (1× PBS) (137 mM NaCl, 2.7 mM KCl, 10 mM Na2HPO4, and 1.8 mM KH2PO4, pH 7.4). The Nup62 glycosylation reactions were run for 15 min at 37° C. Reaction mixtures were subsequently quenched by spottinged on Whatman® Protran® nitrocellulose membrane, washed with 1× PBS three times for 15 minutes each. The membranes were air dried and then counted by liquid scintillation counting. The data were analyzed by Microsoft® Excel and Prism 6 (Graphpad®). Robust non-linear variable slope regressions were generated to determine the IC50 and Hill slope values.
In order to evaluate the mode of inhibition of OSMI-1 and UDP-5S-GlcNAc, a series of experiments, as outlined above, were performed with Nup62 as glycosylation substrate. The inhibition test of OSMI-1 was performed by varying the UDP-^14C-GlcNAc concentration from 0 to 0.25 mM while holding concentration of Nup62 constant at 10 μM with four different concentrations of OSMI-1 (0 to 2 μM) in 1× PBS with 100 nM ncOGT and with fixed and saturating concentrations of GST-Nup62 acceptor. The inhibition test of UDP-5S-GlcNAc was performed by varying the UDP-^14C-GlcNAc concentration from 0 to 1 mM while holding concentration of Nup62 constant at 10 μM with five different concentrations of UDP-5S-GlcNAc (0, 1, 5, 10, and 15 μM) in 1× PBS with 100 nM ncOGT. Each reaction was spotted on Whatman® grade P81 ion exchange chromatography paper circles, washed with 1× PBS three times for 15 minutes each. The membranes were air dried and then counted by liquid scintillation counting. Each assay was duplicated in parallel. The data were analyzed by Microsoft® Excel and Prism 6 (Graphpad®). The Michaelis-Menten plots and Ki of both inhibitors calculated under non-linear regression with competitive inhibition mode are shown in FIG. 5.

[2] = tested on: LNCaP cells; test: LNCaP cell viability and c-Myc stability; assay type: cell-based, human; conditions: 50 μM
Experimental: The sample was separated by SDS-PAGE (Bio-Rad 4-15%, Cat: 345-0028), transferred to a nitrocellulose membrane (iBlot, Invitrogen) and probed with the indicated antibody. Tyipcally, membranes were blocked with 4% BSA in 1× TBS+0.04% tween-20 for 1 hour before incubating with antibody (typically diluted 1:1000 in 4% BSA inlx TBS+0.04% tween-20) overnight at 4° C. Membranes were then washed three times with 1× TBS+0.04% tween-20 and incubated with secondary antibody (typically diluted 1:5000 in 4% BSA in 1× TBS+0.04% tween-20) for 1 hour at room temperature. Lastly, membranes were washed 3× with 1× TBS+0.04% tween-20 and imaged with ECL. D283-Med cells were treated as above but grown in F12-K media supplemented with 10% FBS and antibiotics. HEK, HeLa and LNCaP cells were treated as above but grown in RPMI media supplemented with 10% FBS and antibiotics.
Cell viability, cytotoxicity and apoptosis signaling assays were performed in a 96-well plate using ApoTox-Glo reagent (Promega) according to the manufacturer's instructions.

[3] = Aqueous solubility; assay type: physicochemical

IC50 ([1]; 6 μM UDP-GlcNAc, 18 μM GST-Nup62): 3 µM
Ki ([1]; non-linear regression, competitive inhibition fit, Nup62 substrate, read-out: Inhibition constant (Ki)): 400 nM
Aqueous solubility [3]: limited aqueous solubility
Structure (SMILES): COc1ccccc1[C@@H](NS(=O)(=O)c1ccc2[nH]c(=O)ccc2c1)C(=O)N(Cc1ccco1)Cc1cccs1 [OSMI-1, (R)—N-(furan-2-ylmethyl)-2-(2-methoxyphenyl)-2-(2-oxo-1,2-dihydroquinoline-6-sulfonamido)-N-(thiophen-2-ylmethyl)acetamide]
LNCaP cell viability ([2]; 48 hrs): decrease in cell viability
c-Myc stability ([2]; LNCaP cells, 6 and 48 hours): decreases c-Myc stability
